From PMC11964917 (Nature Microbiology, 2025)

What was measured:
recombinant NA A/H7N9 = assay type: biochemical, influenza A virus
influenza A/H5N1 virus = assay type: cell-based
influenza A/H7N9 virus = assay type: cell-based

Compound	IC50 (recombinant NA A/H7N9) [nM]	EC50 (influenza A/H5N1 virus) [nM]	EC50 (influenza A/H7N9 virus) [nM]
CC(=O)N[C@H]1[C@H]([C@H](O)[C@H](O)CO)OC(C(=O)O)=C[C@@H]1N=C(N)N [ZAN, zanamivir]	> 100	–	–
O=C1c2c(O)c(=O)ccn2N([C@@H]2c3ccccc3SCc3c2ccc(F)c3F)[C@@H]2COCCN12 [BXA, baloxavir acid]	–	< 0.03	< 0.03
